The assay has as its target T1, hT1R2/hT1R3 sweet receptor expressed in HEK293 cell line (Homo sapiens, UniProt Q7RTX0+Q8TE23).
T1 construct: expressed in transfected cells; host or cells: HEK293 derivative stably expressing Gα15 and hT1R2/hT1R3, clone S-9
T1 sequence (Q8TE23 20-839): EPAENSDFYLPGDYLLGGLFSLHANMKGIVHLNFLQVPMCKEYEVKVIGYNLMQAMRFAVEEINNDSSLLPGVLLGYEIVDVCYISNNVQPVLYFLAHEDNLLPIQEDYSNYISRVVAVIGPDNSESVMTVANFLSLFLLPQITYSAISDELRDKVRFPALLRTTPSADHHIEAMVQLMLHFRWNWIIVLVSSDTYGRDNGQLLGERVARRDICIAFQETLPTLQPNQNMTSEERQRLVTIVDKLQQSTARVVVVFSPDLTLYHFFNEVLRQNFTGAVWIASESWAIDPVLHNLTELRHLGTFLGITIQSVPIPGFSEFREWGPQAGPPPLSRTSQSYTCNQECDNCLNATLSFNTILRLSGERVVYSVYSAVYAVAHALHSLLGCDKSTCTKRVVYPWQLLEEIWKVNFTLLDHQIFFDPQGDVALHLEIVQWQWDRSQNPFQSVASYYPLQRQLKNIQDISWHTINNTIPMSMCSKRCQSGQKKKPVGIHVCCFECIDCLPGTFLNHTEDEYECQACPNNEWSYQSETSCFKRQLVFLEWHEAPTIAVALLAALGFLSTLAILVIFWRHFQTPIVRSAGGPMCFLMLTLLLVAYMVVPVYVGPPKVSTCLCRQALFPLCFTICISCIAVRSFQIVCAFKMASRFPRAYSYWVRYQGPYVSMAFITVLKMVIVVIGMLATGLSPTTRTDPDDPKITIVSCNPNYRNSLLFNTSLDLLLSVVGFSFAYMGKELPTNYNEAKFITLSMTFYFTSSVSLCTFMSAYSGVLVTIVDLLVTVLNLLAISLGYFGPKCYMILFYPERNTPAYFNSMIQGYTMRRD
T1 sequence (Q7RTX0 21-852): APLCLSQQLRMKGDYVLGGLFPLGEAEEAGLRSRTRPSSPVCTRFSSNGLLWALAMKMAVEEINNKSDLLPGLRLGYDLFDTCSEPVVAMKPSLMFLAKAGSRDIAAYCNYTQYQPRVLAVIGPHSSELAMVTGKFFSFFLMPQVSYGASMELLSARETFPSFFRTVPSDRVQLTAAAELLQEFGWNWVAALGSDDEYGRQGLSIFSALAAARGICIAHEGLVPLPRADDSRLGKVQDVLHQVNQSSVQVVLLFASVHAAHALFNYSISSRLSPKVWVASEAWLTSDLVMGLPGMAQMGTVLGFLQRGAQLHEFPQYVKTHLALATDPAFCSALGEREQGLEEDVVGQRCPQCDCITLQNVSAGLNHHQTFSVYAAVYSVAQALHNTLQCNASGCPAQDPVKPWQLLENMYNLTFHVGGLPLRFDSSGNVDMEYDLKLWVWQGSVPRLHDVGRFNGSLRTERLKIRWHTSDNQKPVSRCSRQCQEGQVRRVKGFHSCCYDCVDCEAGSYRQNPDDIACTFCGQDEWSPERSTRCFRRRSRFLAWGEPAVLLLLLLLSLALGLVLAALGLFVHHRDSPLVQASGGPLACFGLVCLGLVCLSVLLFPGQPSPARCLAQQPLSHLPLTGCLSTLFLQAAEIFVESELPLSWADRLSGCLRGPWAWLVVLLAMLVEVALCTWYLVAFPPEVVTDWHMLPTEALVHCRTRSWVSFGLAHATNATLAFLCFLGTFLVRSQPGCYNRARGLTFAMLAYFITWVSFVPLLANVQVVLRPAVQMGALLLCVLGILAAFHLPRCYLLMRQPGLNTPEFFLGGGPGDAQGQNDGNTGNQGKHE
The experiment in a line: In vitro hT1R2/hT1R3-HEK293 taste receptor activation assay (FLIPR). As to conditions: read-out: EC50 for activation of a hT1R2/hT1R3 sweet receptor expressed in HEK293 cell line. The class given is cell-based. The gist of the method: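 HEK293 cells stably expressing Gα15 and hT1R2/hT1R3 were loaded with Fluo-3AM (4 μM, 1 h, room temperature), then stimulated at room temperature in D-PBS. Peak fluorescence (ex 480/em 535 nm) was normalized to basal. Dose-responses were run in duplicate over 60 nM–30 μM, normalized to 400 mM D-fructose, and EC50 fitted by free-Hill non-linear regression.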

On to `CC(C)CNC(=O)C(C)(C)c1ccc(-c2cncc(C#N)c2)cc1` [Compound 23, 2-(4-(5-cyanopyridin-3-yl)phenyl)-N-isobutyl-2-methylpropanamide], for which the EC50 was 150 nM.
